Data published in US8530465B2, “1, 2-disubstituted amido-anthraquinone derivatives, preparation method and application thereof” (National Defense Medical Center, priority 2010, dated 2013).

How the values were obtained:
IGROV1 = experiment: NCI drug screen, IGROV1; format: cell-based, human; conditions: IGROV1 (Ovarian Cancer); 1.00E−5 Molar
Experimental: (§1) In brief, cellular protein levels were determined after 48 hours of drug exposure by sulforhodamine B colorimetry. Through the use of a time 0 cell control, the cell growth can be determined for each cell line thus allowing calculations of the 50% growth inhibitory concentration (GI50), the total growth inhibition (TGI), and the 50% lethal concentration (LC50). Comparison to plates not exposed to drug permits determination of concentration and times of exposure conferring 50% net growth inhibition (GI50), TGI, and 50% cell kill (LC50).
(§2) The screening system in United State National Cancer Institute (NCI) is consisted of 60 kinds of different human cancer cells, which can be used to assay the growth-inhibiting ability or cell toxicity of a compound against various cancer and tumor at a certain concentration.

KM12 = experiment: NCI drug screen, KM12; format: cell-based, human; conditions: KM12 (Colon Cancer); 1.00E−5 Molar
Experimental: as §1, §2

CAKI-1 = experiment: NCI drug screen, CAKI-1; format: cell-based, human; conditions: CAKI-1 (Renal Cancer); 1.00E−5 Molar
Experimental: as §1, §2

SK-OV-3 = experiment: NCI drug screen, SK-OV-3; format: cell-based, human; conditions: SK-OV-3 (Ovarian Cancer); 1.00E−5 Molar
Experimental: as §1, §2

[1] = system: 60 kinds of different human cancer cells; experiment: NCI in vitro 60-cell Drug Screen, whole panel; format: cell-based; conditions: 1.00E−5 Molar; for Growth Percent, Mean: mean over tested cell lines; for growth-inhibiting effect against cancer cells, by cancer type: NCI's screen
Experimental: as §1
From the data analysis it follows that approximately 95% of the actives (potent anticancer drugs) from the 60 cell line screen can be identified. By these criteria, five compounds (each with its certification number, refer to FIG. 4) of the invention were reported that having anticancer activity.
as §2

M14 = experiment: NCI drug screen, M14; format: cell-based, human; conditions: M14 (Melanoma); 1.00E−5 Molar
Experimental: as §1, §2

UACC-257 = experiment: NCI drug screen, UACC-257; format: cell-based, human; conditions: UACC-257 (Melanoma); 1.00E−5 Molar
Experimental: as §1, §2

U251 = experiment: NCI drug screen, U251; format: cell-based, human; conditions: U251 (CNS Cancer); 1.00E−5 Molar
Experimental: as §1, §2

MOLT-4 = experiment: NCI drug screen, MOLT-4; format: cell-based, human; conditions: MOLT-4 (Leukemia); 1.00E−5 Molar
Experimental: as §1, §2

HL-60(TB) = experiment: NCI drug screen, HL-60(TB); format: cell-based, human; conditions: HL-60(TB) (Leukemia); 1.00E−5 Molar
Experimental: as §1, §2

UACC-62 = experiment: NCI drug screen, UACC-62; format: cell-based, human; conditions: UACC-62 (Melanoma); 1.00E−5 Molar
Experimental: as §1, §2

CCRF-CEM = experiment: NCI drug screen, CCRF-CEM; format: cell-based, human; conditions: CCRF-CEM (Leukemia); 1.00E−5 Molar
Experimental: as §1, §2

SN12C = experiment: NCI drug screen, SN12C; format: cell-based, human; conditions: SN12C (Renal Cancer); 1.00E−5 Molar
Experimental: as §1, §2

SF-539 = experiment: NCI drug screen, SF-539; format: cell-based, human; conditions: SF-539 (CNS Cancer); 1.00E−5 Molar
Experimental: as §1, §2

TK-10 = experiment: NCI drug screen, TK-10; format: cell-based, human; conditions: TK-10 (Renal Cancer); 1.00E−5 Molar
Experimental: as §1, §2

UO-31 = experiment: NCI drug screen, UO-31; format: cell-based, human; conditions: UO-31 (Renal Cancer); 1.00E−5 Molar
Experimental: as §1, §2

786-0 = experiment: NCI drug screen, 786-0; format: cell-based, human; conditions: 786-0 (Renal Cancer); 1.00E−5 Molar
Experimental: as §1, §2

[2] = MTT assay, PhTERT-SEAP (H1299); format: cell-based, human; conditions: human, H1299 cells carrying the PhTERT-SEAP reporter, PhTERT-SEAP (H1299); for viability at 1 μM: Conc. 1 μM, read-out: Relative MTT viability (%); for viability at 10 μM: Conc. 10 μM; for viability at 10 μM / viability at 100 μM: read-out: Relative MTT viability (%) (converted); for viability at 100 μM: Conc. 100 μM
Method in brief: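 Cultured cells received MTT for 4 h at 37 °C, then lysis buffer overnight at 37 °C. Optical density was read at 550 nm.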

MDA-MB-468 = experiment: NCI drug screen, MDA-MB-468; format: cell-based, human; conditions: MDA-MB-468 (Breast Cancer); 1.00E−5 Molar
Experimental: as §1, §2

COLO 205 = experiment: NCI drug screen, COLO 205; format: cell-based, human; conditions: COLO 205 (Colon Cancer); 1.00E−5 Molar
Experimental: as §1, §2

A549/ATCC = experiment: NCI drug screen, A549/ATCC; format: cell-based, human; conditions: A549/ATCC (Non-Small Cell Lung Cancer); 1.00E−5 Molar
Experimental: as §1, §2

OVCAR-3 = experiment: NCI drug screen, OVCAR-3; format: cell-based, human; conditions: OVCAR-3 (Ovarian Cancer); 1.00E−5 Molar
Experimental: as §1, §2

HCC-2998 = experiment: NCI drug screen, HCC-2998; format: cell-based, human; conditions: HCC-2998 (Colon Cancer); 1.00E−5 Molar
Experimental: as §1, §2

SF-295 = experiment: NCI drug screen, SF-295; format: cell-based, human; conditions: SF-295 (CNS Cancer); 1.00E−5 Molar
Experimental: as §1, §2

BT-549 = experiment: NCI drug screen, BT-549; format: cell-based, human; conditions: BT-549 (Breast Cancer); 1.00E−5 Molar
Experimental: as §1, §2

SW-620 = experiment: NCI drug screen, SW-620; format: cell-based, human; conditions: SW-620 (Colon Cancer); 1.00E−5 Molar
Experimental: as §1, §2

HCT-116 = experiment: NCI drug screen, HCT-116; format: cell-based, human; conditions: HCT-116 (Colon Cancer); 1.00E−5 Molar
Experimental: as §1, §2

SK-MEL-2 = experiment: NCI drug screen, SK-MEL-2; format: cell-based, human; conditions: SK-MEL-2 (Melanoma); 1.00E−5 Molar
Experimental: as §1, §2

HOP-62 = experiment: NCI drug screen, HOP-62; format: cell-based, human; conditions: HOP-62 (Non-Small Cell Lung Cancer); 1.00E−5 Molar
Experimental: as §1, §2

EKVX = experiment: NCI drug screen, EKVX; format: cell-based, human; conditions: EKVX (Non-Small Cell Lung Cancer); 1.00E−5 Molar
Experimental: as §1, §2

SMILES | Growth Percent (IGROV1) [%] | Growth Percent (KM12) [%] | Growth Percent, Mean [1] [%] | Growth Percent (M14) [%] | Growth Percent (U251) [%] | Growth Percent (MOLT-4) [%] | Growth Percent (HL-60(TB)) [%] | Growth Percent (UACC-62) [%] | Growth Percent (SN12C) [%] | Growth Percent (SF-539) [%] | Growth Percent (TK-10) [%] | Growth Percent (UO-31) [%] | Growth Percent (786-0) [%] | viability at 1 μM [2] [%] | viability at 10 μM [2] [%] | Growth Percent (MDA-MB-468) [%] | Growth Percent (OVCAR-3) [%] | Growth Percent (SF-295) [%] | Growth Percent (BT-549) [%] | Growth Percent (SW-620) [%] | further results
Cc1ccc(C(=O)Nc2ccc3c(c2NC(=O)c2ccc(C)cc2)C(=O)c2ccccc2C3=O)cc1 [CC-04, 1,2-bis-(4-methylbenzamido)-anthraquinone] | 78.71 | 94.21 | 96.19 | 91.57 | 91.73 | 89.63 | 73.11 | 87.50 | 98.59 | 97.26 | 124.91 | 66.54 | 116.17 | 100 ± 4.4 | 117 | 104.17 | 97.90 | 110.81 | 95.39 | 93.79 | Growth Percent (CAKI-1): 94.89%; Growth Percent (SK-OV-3): 109.62%; Growth Percent (UACC-257): 98.46%; Growth Percent (CCRF-CEM): 79.02%; viability at 100 μM [2]: 62%; Growth Percent (COLO 205): 108.57%; Growth Percent (A549/ATCC): 90.46%; Growth Percent (HCC-2998): 84.68%; Growth Percent (HCT-116): 78.55%; Growth Percent (SK-MEL-2): 100.65%; Growth Percent (HOP-62): 105.23%
Cc1ccc(C(=O)Nc2c(NC(=O)CCl)ccc3c2C(=O)c2ccccc2C3=O)cc1 [CC-12, 1-(4-methylbenzamido)-2-(chloroacetamido)-anthraquinone] | 51.41 | −19.53 | −1.96 | −22.68 | −44.02 | −23.17 | −46.88 | −67.80 | −81.02 | −31.42 | 130.52 | 42.91 | 11.30 | 104 ± 7.83 | 2.77 | −83.42 | −92.86 | 79.70 | 28.19 | −43.27 | Growth Percent (SK-OV-3): 106.24%; growth-inhibiting effect against cancer cells, by cancer type [1]: exhibited growth-inhibiting effect against cancer cells such as leukemia, non-small cell lung cancer, colon cancer, central nervous system (CNS) cancer, melanoma, ovarian cancer, renal cancer, prostate cancer, breast cancer; Growth Percent (EKVX): 88.22%; Growth Percent (COLO 205): −53.43%; Growth Percent (A549/ATCC): −81.71%; Growth Percent (HCT-116): −54.27%; Growth Percent (SK-MEL-2): 52.00%; Growth Percent (HOP-62): −28.62%
O=C(CCl)Nc1ccc2c(c1NC(=O)Cc1ccccc1)C(=O)c1ccccc1C2=O [CC-23, 1-[2-(phenyl)acetylamino]-2-(chloroacetamido)-anthraquinone] | 41.03 | 80.59 | 73.78 | 87.10 | 66.17 | 11.40 | 41.36 | 59.67 | 79.93 | 107.09 | 120.81 | 58.19 | 97.26 | 82 ± 1.79 | 5.94 | 51.02 | 86.38 | 98.48 | 79.78 | 83.41 | growth-inhibiting effect against cancer cells, by cancer type [1]: could inhibit the cancer cell growth of leukemia and melanoma; Growth Percent (EKVX): 102.08%; Growth Percent (CCRF-CEM): 33.97%; viability at 100 μM [2]: 3.98%; Growth Percent (HCC-2998): 94.74%; Growth Percent (HCT-116): 67.55%; Growth Percent (SK-MEL-2): −6.49%; Growth Percent (HOP-62): 115.67%
Cc1ccc(C(=O)Nc2c(NC(=O)CN3CCCC3)ccc3c2C(=O)c2ccccc2C3=O)cc1 [CC-38, 1-(4-methylbenzamido)-2-[2-(tetrahydro-1H-1-pyrrolyl)acetylamino]-anthra quinone] | 106.07 | 51.05 | 74.53 | 88.01 | 82.17 | 48.20 | 96.11 | 76.82 | 74.82 | 81.29 | 86.85 | 69.24 | 65.15 | 88.2 ± 4.94 | 69 | 69.27 | 77.82 | 68.97 | 81.58 | 82.29 | Growth Percent (CAKI-1): 55.64%; Growth Percent (SK-OV-3): 82.13%; Growth Percent (UACC-257): 92.83%; Growth Percent (EKVX): 65.93%; Growth Percent (CCRF-CEM): 39.61%; viability at 100 μM [2]: 5.05%; Growth Percent (COLO 205): 65.60%; Growth Percent (A549/ATCC): 84.88%; Growth Percent (HCC-2998): 84.60%; Growth Percent (HCT-116): 58.46%; Growth Percent (SK-MEL-2): 102.17%; Growth Percent (HOP-62): 113.43%
